# “Also recorded” adds a separate entry of the source.
# Columns and labels:
# Format in all cases: in vivo
# Beagle dogs [1] = experiment: Dog study: arterial blood gases, ventilation and acid-base status in normoxia and hypoxia; conditions: iv bolus + continuous infusion
# Excerpt: The dogs were kept under highly standardized conditions and received a standardized diet five days before the experiments. […] To permit spontaneous breathing through a low resistance circuit, a face mask was attached, which enclosed the dog's snout in a leak proof fashion. This custom made mask is equipped with a 2.5 cm ID connector to connect it to a ventilator set to CPAP mode (3 4 cmH20) (Servo900C; Siemens-Elema, Erlangen/Germany).
# (§1) Six dogs were studied in five different protocols in randomized order:
# 5) Ethoxzolamide (Sigma-Aldrich, Steinheim/Germany) intravenously: Bolus ethoxzolamide (1 mg/kg), followed by a continuous infusion of 1 mg·kg^−1·h^−1.
# The hemodynamic measurements (arterial blood pressure, heart rate, central venous pressure, pulmonary artery pressure, pulmonary capillary wedge pressure), minute ventilation, renal function data, time points for blood samples for blood gases, actual bicarbonate, base excess, plasma electrolytes and hormones, measurements of plasma and urinary values were according to former studies.
# (§2) Values are given as means±SEM (n=6). For intra-group comparisons a general linear model of analysis of variance (GLM-ANOVA) for repeated measures was applied (NCSS97/PASS 2000, Saugus/MA, USA). Post-hoc testing of means was performed with Student's t-test. Level of significance for error of first order was adjusted according to Holm's procedure. Statistical significance was assumed at p<0.05.
# Beagle dogs [2] = experiment: Dog study: pulmonary and systemic hemodynamics, hypoxic pulmonary vasoconstriction; conditions: for MPAP and PVR during hypoxia (words): iv bolus + continuous infusion (AZ, benzolamide 2 mg/kg + 2 mg/kg/h; ethoxzolamide 1 mg/kg + 1 mg/kg/h)
# Description: (§3) A total of 30 experiments were performed on six female Beagle dogs (body wt 14.3±0.3 kg). The dogs were kept under highly standardized conditions and received a standardized diet five days before the experiments. The preparation and catheterization of the conscious dog were performed according to former experiments as in Höhne C., et al., J Appl Physiol (2004), which is hereby incorporated by reference in its entirety. To permit spontaneous breathing through a low resistance circuit, a face mask was attached, which enclosed the dog's snout in a leak proof fashion. This custom made mask is equipped with a 2.5 cm ID connector to connect it to a ventilator set to CPAP mode (3 4 cmH20) (Servo900C; Siemens-Elema, Erlangen/Germany).
# as §1
# (§4) 4) Benzolamide intravenously: Bolus (2 mg/kg), followed by a continuous infusion of 2 mg·kg^−1·h^−1, a dosage which inhibits only renal and vascular endothelial extracellular CA, without affecting red cell CA as in Travis D. M., et al. J Pharmacol Exp Ther (1964), which is hereby incorporated by reference in its entirety. 5) Ethoxzolamide (Sigma-Aldrich, Steinheim/Germany) intravenously: Bolus ethoxzolamide (1 mg/kg), followed by a continuous infusion of 1 mg·kg^−1·h^−1.
# (§5) In control experiments, the dogs breathed room air (21% O2, 79% N2; normoxia) for one hour, followed by breathing a gas mixture containing 10% O2 and 90% N2 for two hours (hypoxia). The time course was the same for the CA inhibitor experiments, but F1O2 was reduced to 0.09 during the hypoxia period to match the arterial and alveolar PO2 of the control dogs, which otherwise would have been higher on 10% O2 as a result of the known ventilatory stimulant effect of all CA inhibitors. See Höhne C., et al., J Appl Physiol 97:515-521 (2004), which is hereby incorporated by reference in its entirety. The hemodynamic measurements (arterial blood pressure, heart rate, central venous pressure, pulmonary artery pressure, pulmonary capillary wedge pressure), minute ventilation, renal function data, time points for blood samples for blood gases, actual bicarbonate, base excess, plasma electrolytes and hormones, measurements of plasma and urinary values were according to former studies. See Höhne C., et al., J Appl Physiol 90:1842-1848 (2001), which is hereby incorporated by reference in its entirety.
# as §2
# Beagle dogs [3] = experiment: Dog study: plasma hormones, electrolytes and renal function; conditions: iv bolus + continuous infusion
# Description: as §3, §1, §4, §5, §2
# [4] = iv bolus + continuous infusion, hypoxia 2nd h
# [5] = iv bolus + continuous infusion, hypoxia 3rd h
# [6] = iv bolus + continuous infusion, normoxia 1st h
smiles,measurement,setting,value
"CCOc1ccc2nc(S(N)(=O)=O)sc2c1 [EZ, ethoxzolamide]","BEa, arterial base excess",Beagle dogs [1]; hypoxia 2nd h,-6.2 ± 1.2 mM
same,"HCO3a, arterial actual bicarbonate concentration",Beagle dogs [1]; hypoxia 2nd h,18.1 ± 1.3 mM
same,"PaCO2, arterial carbon dioxide tension",Beagle dogs [1]; hypoxia 2nd h,26 ± 1 Torr
same,"PaO2, arterial oxygen tension",Beagle dogs [1]; hypoxia 2nd h,36 ± 1 Torr
same,"VE, minute ventilation",Beagle dogs [1]; hypoxia 2nd h,6.4 ± 0.7 L/min
same,"pHa, arterial pH",Beagle dogs [1]; hypoxia 2nd h,7.41 ± 0.01
same,"BEa, arterial base excess",Beagle dogs [1]; hypoxia 3rd h,-6.7 ± 1.1 mM
same,"HCO3a, arterial actual bicarbonate concentration",Beagle dogs [1]; hypoxia 3rd h,17.6 ± 1.3 mM
same,"PaCO2, arterial carbon dioxide tension",Beagle dogs [1]; hypoxia 3rd h,24 ± 1 Torr
same,"PaO2, arterial oxygen tension",Beagle dogs [1]; hypoxia 3rd h,38 ± 1 Torr
same,"VE, minute ventilation",Beagle dogs [1]; hypoxia 3rd h,6.9 ± 0.9 L/min
same,"pHa, arterial pH",Beagle dogs [1]; hypoxia 3rd h,7.42 ± 0.01
same,"BEa, arterial base excess",Beagle dogs [1]; normoxia 1st h,-5.3 ± 0.5 mM
same,"HCO3a, arterial actual bicarbonate concentration",Beagle dogs [1]; normoxia 1st h,19.6 ± 0.6 mM
same,"PaCO2, arterial carbon dioxide tension",Beagle dogs [1]; normoxia 1st h,33 ± 1 Torr
same,"PaO2, arterial oxygen tension",Beagle dogs [1]; normoxia 1st h,105 ± 1 Torr
same,"VE, minute ventilation",Beagle dogs [1]; normoxia 1st h,4.0 ± 0.2 L/min
same,"pHa, arterial pH",Beagle dogs [1]; normoxia 1st h,7.37 ± 0.01
same,MPAP and PVR during hypoxia (words),Beagle dogs [2],increased; also recorded: did not prevent
same,"CO, cardiac output",Beagle dogs [2]; [4],2.9 ± 0.2 L/min
same,"CVP, central venous pressure",Beagle dogs [2]; [4],2.5 ± 0.2 cmH2O
same,"HR, heart rate",Beagle dogs [2]; [4],104 ± 6 beats/min
same,"MAP, mean arterial pressure",Beagle dogs [2]; [4],104 ± 7 mmHg
same,"MPAP, mean pulmonary arterial pressure",Beagle dogs [2]; [4],17 ± 1 mmHg
same,"PCWP, pulmonary capillary wedge pressure",Beagle dogs [2]; [4],4.0 ± 0.5 cm H2O
same,"SVR, systemic vascular resistance",Beagle dogs [2]; [4],2745 ± 154 dyn · s^1 · cm^−5
same,"CO, cardiac output",Beagle dogs [2]; [5],2.9 ± 0.3 L/min
same,"CVP, central venous pressure",Beagle dogs [2]; [5],2.5 ± 0.2 cmH2O
same,"HR, heart rate",Beagle dogs [2]; [5],106 ± 4 beats/min
same,"MAP, mean arterial pressure",Beagle dogs [2]; [5],101 ± 1 mmHg
same,"MPAP, mean pulmonary arterial pressure",Beagle dogs [2]; [5],16 ± 1 mmHg
same,"PCWP, pulmonary capillary wedge pressure",Beagle dogs [2]; [5],3.5 ± 0.3 cm H2O
same,"SVR, systemic vascular resistance",Beagle dogs [2]; [5],3270 ± 380 dyn · s^1 · cm^−5
same,"CO, cardiac output",Beagle dogs [2]; [6],2.8 ± 0.2 L/min
same,"CVP, central venous pressure",Beagle dogs [2]; [6],2.3 ± 0.2 cmH2O
same,"HR, heart rate",Beagle dogs [2]; [6],77 ± 4 beats/min
same,"MAP, mean arterial pressure",Beagle dogs [2]; [6],96 ± 2 mmHg
same,"MPAP, mean pulmonary arterial pressure",Beagle dogs [2]; [6],11 ± 1 mmHg
same,"PCWP, pulmonary capillary wedge pressure",Beagle dogs [2]; [6],3.8 ± 0.2 cm H2O
same,"PVR, pulmonary vascular resistance",Beagle dogs [2]; [6],221 ± 21 dyn · s^−1 · cm^−5
same,"SVR, systemic vascular resistance",Beagle dogs [2]; [6],2784 ± 200 dyn · s^1 · cm^−5
same,plasma renin activity during hypoxia,Beagle dogs [3],did not change
same,"GFR, glomerular filtration rate",Beagle dogs [3]; hypoxia 2nd h,0.186 ± 0.012 L/h/kg
same,"PK, plasma potassium concentration",Beagle dogs [3]; hypoxia 2nd h,2.8 ± 0.1 mM
same,"UV, urine volume",Beagle dogs [3]; hypoxia 2nd h,0.00432 ± 0.00132 L/h/kg
same,"GFR, glomerular filtration rate",Beagle dogs [3]; hypoxia 3rd h,0.192 ± 0.012 L/h/kg
same,"PK, plasma potassium concentration",Beagle dogs [3]; hypoxia 3rd h,2.7 ± 0.1 mM
same,"UV, urine volume",Beagle dogs [3]; hypoxia 3rd h,0.0027 ± 0.00036 L/h/kg
same,"GFR, glomerular filtration rate",Beagle dogs [3]; normoxia 1st h,0.192 ± 0.012 L/h/kg
same,"PK, plasma potassium concentration",Beagle dogs [3]; normoxia 1st h,3.1 ± 0.1 mM
same,"UV, urine volume",Beagle dogs [3]; normoxia 1st h,0.00312 ± 0.00054 L/h/kg
"NS(=O)(=O)c1nnc(NS(=O)(=O)c2ccccc2)s1 [BZ, benzolamide]","BEa, arterial base excess",Beagle dogs [1]; hypoxia 2nd h,-4.4 ± 0.4 mM
same,"HCO3a, arterial actual bicarbonate concentration",Beagle dogs [1]; hypoxia 2nd h,18.4 ± 0.3 mM
same,"PaCO2, arterial carbon dioxide tension",Beagle dogs [1]; hypoxia 2nd h,30 ± 1 Torr
same,"PaO2, arterial oxygen tension",Beagle dogs [1]; hypoxia 2nd h,37 ± 1 Torr
same,"VE, minute ventilation",Beagle dogs [1]; hypoxia 2nd h,4.4 ± 0.5 L/min
same,"pHa, arterial pH",Beagle dogs [1]; hypoxia 2nd h,7.41 ± 0.01
same,"BEa, arterial base excess",Beagle dogs [1]; hypoxia 3rd h,-4.9 ± 0.4 mM
same,"HCO3a, arterial actual bicarbonate concentration",Beagle dogs [1]; hypoxia 3rd h,17.7 ± 0.4 mM
same,"PaCO2, arterial carbon dioxide tension",Beagle dogs [1]; hypoxia 3rd h,29 ± 1 Torr
same,"PaO2, arterial oxygen tension",Beagle dogs [1]; hypoxia 3rd h,38 ± 1 Torr
same,"VE, minute ventilation",Beagle dogs [1]; hypoxia 3rd h,5.1 ± 0.6 L/min
same,"pHa, arterial pH",Beagle dogs [1]; hypoxia 3rd h,7.42 ± 0.01
same,"BEa, arterial base excess",Beagle dogs [1]; normoxia 1st h,-4.4 ± 0.4 mM
same,"HCO3a, arterial actual bicarbonate concentration",Beagle dogs [1]; normoxia 1st h,20.1 ± 0.3 mM
same,"PaCO2, arterial carbon dioxide tension",Beagle dogs [1]; normoxia 1st h,37 ± 1^ Torr
same,"PaO2, arterial oxygen tension",Beagle dogs [1]; normoxia 1st h,96 ± 1^ Torr
same,"VE, minute ventilation",Beagle dogs [1]; normoxia 1st h,3.0 ± 0.2 L/min
same,"pHa, arterial pH",Beagle dogs [1]; normoxia 1st h,7.35 ± 0.01
same,MPAP and PVR during hypoxia (words),Beagle dogs [2]; listed as Benzolamide,did not inhibit
same,MPAP and PVR during hypoxia (words),Beagle dogs [2]; listed as benzolamide,increased
same,"CO, cardiac output",Beagle dogs [2]; [4],2.6 ± 0.2 L/min
same,"CVP, central venous pressure",Beagle dogs [2]; [4],1.5 ± 0.2 cmH2O
same,"HR, heart rate",Beagle dogs [2]; [4],94 ± 10 beats/min
same,"MAP, mean arterial pressure",Beagle dogs [2]; [4],109 ± 6 mmHg
same,"MPAP, mean pulmonary arterial pressure",Beagle dogs [2]; [4],18 ± 1 mmHg
same,"PCWP, pulmonary capillary wedge pressure",Beagle dogs [2]; [4],3.2 ± 0.4 cm H2O
same,"SVR, systemic vascular resistance",Beagle dogs [2]; [4],3272 ± 113 dyn · s^1 · cm^−5
same,"CO, cardiac output",Beagle dogs [2]; [5],2.7 ± 0.2 L/min
same,"CVP, central venous pressure",Beagle dogs [2]; [5],1.2 ± 0.2 cmH2O
same,"HR, heart rate",Beagle dogs [2]; [5],90 ± 8 beats/min
same,"MAP, mean arterial pressure",Beagle dogs [2]; [5],109 ± 9 mmHg
same,"MPAP, mean pulmonary arterial pressure",Beagle dogs [2]; [5],19 ± 1 mmHg
same,"PCWP, pulmonary capillary wedge pressure",Beagle dogs [2]; [5],3.8 ± 0.3 cm H2O
same,"SVR, systemic vascular resistance",Beagle dogs [2]; [5],3227 ± 83 dyn · s^1 · cm^−5
same,"CO, cardiac output",Beagle dogs [2]; [6],2.7 ± 0.2 L/min
same,"CVP, central venous pressure",Beagle dogs [2]; [6],1.8 ± 0.3 cmH2O
same,"HR, heart rate",Beagle dogs [2]; [6],73 ± 6 beats/min
same,"MAP, mean arterial pressure",Beagle dogs [2]; [6],102 ± 5 mmHg
same,"MPAP, mean pulmonary arterial pressure",Beagle dogs [2]; [6],12 ± 1 mmHg
same,"PCWP, pulmonary capillary wedge pressure",Beagle dogs [2]; [6],3.2 ± 0.2 cm H2O
same,"SVR, systemic vascular resistance",Beagle dogs [2]; [6],3101 ± 376 dyn · s^1 · cm^−5
same,plasma renin activity during hypoxia,Beagle dogs [3],did not change
same,"GFR, glomerular filtration rate",Beagle dogs [3]; hypoxia 2nd h,0.18 ± 0.012 L/h/kg
same,"PK, plasma potassium concentration",Beagle dogs [3]; hypoxia 2nd h,2.9 ± 0.1 mM
same,"UV, urine volume",Beagle dogs [3]; hypoxia 2nd h,0.00624 ± 0.00138 L/h/kg
same,"GFR, glomerular filtration rate",Beagle dogs [3]; hypoxia 3rd h,0.192 ± 0.012 L/h/kg
same,"PK, plasma potassium concentration",Beagle dogs [3]; hypoxia 3rd h,2.8 ± 0.1 mM
same,"UV, urine volume",Beagle dogs [3]; hypoxia 3rd h,0.0039 ± 0.0009 L/h/kg
same,"GFR, glomerular filtration rate",Beagle dogs [3]; normoxia 1st h,0.174 ± 0.012 L/h/kg
same,"PK, plasma potassium concentration",Beagle dogs [3]; normoxia 1st h,3.0 ± 0.1 mM
same,"UV, urine volume",Beagle dogs [3]; normoxia 1st h,0.00396 ± 0.00042 L/h/kg

# From patent US8614236B2 (University of Washington, priority 2006, dated 2013)
